Test [1] deals with T1, N-terminally FLAG-tagged PARP2 (amino acids 1-583) (Homo sapiens, UniProt Q9UGN5).
T1 construct: N-terminally FLAG-tagged PARP2 (amino acids 1-583)
Nature of the test: PARP2 probe displacement HTRF assay. The format is binding. Particulars: binned Kd, PARP2 probe displacement HTRF. The method, then:
Data analysis was performed identical as for PARP1.

In test [2] the target is T2, full length N-terminally FLAG-tagged PARP1 (Homo sapiens, UniProt P09874). The experiment in a line: PARP1 probe displacement HTRF assay. Particulars: for Selectivity: PARP1 over PARP2, ratio Kd (PARP2)/Kd (PARP1), probe displacement HTRF; for Kd: binned Kd, PARP1 probe displacement HTRF. Background: TR-FRET usually uses a lanthanide donor and a delayed reading to cut background.

Test [3] concerns the target T2, full length N-terminally FLAG-tagged PARP1. The experiment in a line: PARP1 biochemical DELFIA assay (auto-PARylation). Set-up: recombinant full length human N-terminally FLAG-tagged PARP1. Particulars: binned IC50, PARP1 biochemical DELFIA assay.

Where two headings read alike, the source gives them in different places.

As a reminder, the IC50 is the concentration that inhibits the measured activity by half.

T2 sequence (P09874 whole entry): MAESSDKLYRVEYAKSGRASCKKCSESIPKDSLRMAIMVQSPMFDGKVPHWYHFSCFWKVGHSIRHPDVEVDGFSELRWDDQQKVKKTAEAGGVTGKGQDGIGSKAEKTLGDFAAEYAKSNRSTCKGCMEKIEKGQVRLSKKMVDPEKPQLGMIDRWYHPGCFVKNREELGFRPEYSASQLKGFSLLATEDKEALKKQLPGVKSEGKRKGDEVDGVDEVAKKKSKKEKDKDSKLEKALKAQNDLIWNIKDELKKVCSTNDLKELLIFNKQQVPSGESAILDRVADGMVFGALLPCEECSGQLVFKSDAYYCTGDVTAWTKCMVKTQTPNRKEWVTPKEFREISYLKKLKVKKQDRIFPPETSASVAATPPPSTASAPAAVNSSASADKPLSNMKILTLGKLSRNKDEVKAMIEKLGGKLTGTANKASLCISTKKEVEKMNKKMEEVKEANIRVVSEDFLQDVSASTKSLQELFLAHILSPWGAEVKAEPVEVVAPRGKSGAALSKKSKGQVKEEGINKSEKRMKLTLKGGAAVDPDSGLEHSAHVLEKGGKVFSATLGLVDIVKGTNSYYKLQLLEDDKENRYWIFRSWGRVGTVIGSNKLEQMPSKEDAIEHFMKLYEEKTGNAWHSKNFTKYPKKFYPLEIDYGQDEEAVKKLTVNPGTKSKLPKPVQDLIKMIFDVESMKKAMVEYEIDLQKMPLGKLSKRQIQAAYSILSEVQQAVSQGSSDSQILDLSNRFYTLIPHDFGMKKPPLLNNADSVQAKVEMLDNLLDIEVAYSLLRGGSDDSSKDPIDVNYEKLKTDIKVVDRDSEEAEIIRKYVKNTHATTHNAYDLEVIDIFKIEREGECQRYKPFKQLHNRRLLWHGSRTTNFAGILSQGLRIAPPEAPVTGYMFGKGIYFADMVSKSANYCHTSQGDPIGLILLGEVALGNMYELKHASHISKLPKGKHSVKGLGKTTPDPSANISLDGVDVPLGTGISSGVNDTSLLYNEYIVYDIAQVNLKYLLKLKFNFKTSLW
T1 sequence (Q9UGN5 whole entry, the tested form may be a part): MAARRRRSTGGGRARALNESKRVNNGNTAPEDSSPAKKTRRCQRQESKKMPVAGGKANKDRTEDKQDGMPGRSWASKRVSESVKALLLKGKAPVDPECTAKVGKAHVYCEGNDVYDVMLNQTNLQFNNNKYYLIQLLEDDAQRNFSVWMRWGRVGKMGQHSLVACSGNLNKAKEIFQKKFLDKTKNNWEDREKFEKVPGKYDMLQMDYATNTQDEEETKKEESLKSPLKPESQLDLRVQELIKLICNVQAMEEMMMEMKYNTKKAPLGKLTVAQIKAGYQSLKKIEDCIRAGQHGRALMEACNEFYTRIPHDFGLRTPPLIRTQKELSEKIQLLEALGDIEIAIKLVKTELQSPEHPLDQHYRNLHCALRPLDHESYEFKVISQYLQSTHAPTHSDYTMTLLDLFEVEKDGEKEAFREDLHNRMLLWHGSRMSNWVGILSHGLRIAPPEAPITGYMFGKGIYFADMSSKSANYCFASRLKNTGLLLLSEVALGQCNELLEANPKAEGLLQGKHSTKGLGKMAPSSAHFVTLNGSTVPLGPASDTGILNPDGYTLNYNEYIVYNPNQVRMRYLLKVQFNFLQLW

Turning to `CNC(=O)c1ccc(N2CCC(N3CCC(c4cc5cccc(Cl)c5c(=O)[nH]4)C3)CC2)cn1` (single isomer, unassigned) [Compound 128b], the Kd in test [1] is 10 to 100 nM; in test [2] (read-out: PARP1 HTRF), below 10 nM. For the same molecule, in test [2], the Selectivity result is listed as “++ (++ indicates a value of 50 to less than 100)”. The half-maximal inhibitory concentration (IC50) in test [3] was below 10 nM.
For the molecule `CNC(=O)c1ccc(N2CCC(N3CCC(c4cc5ccc(Cl)cc5c(=O)[nH]4)C3)CC2)cn1` (single isomer, unassigned) [Compound 129a], the values for the Kd in test [1] and in test [2] (read-out: PARP1 HTRF) were 1000 to 10000 nM and below 10 nM, respectively. In test [2], the Selectivity entry is “+++ (+++ indicate a value of at least 100)”. Moreover, in test [3], the IC50 is below 10 nM.
`O=C(NCC(F)(F)F)c1ccc(N2CCC(N3CCC(c4nc5ccccc5c(=O)[nH]4)C3)CC2)cn1` (single isomer, unassigned) [Compound 130a]: the values for the Kd in test [1] and in test [2] (read-out: PARP1 HTRF) were 100 to 1000 nM and below 10 nM, respectively. For the same molecule, the Selectivity entry in test [2] is given as “+ (+ indicates a value of 10 to less than 50)”. In addition, the 50% inhibitory concentration (IC50) in test [3] is below 10 nM.
Take `O=C(NCC(F)(F)F)c1ccc(N2CCC(N3CCC(c4nc5ccccc5c(=O)[nH]4)C3)CC2)cn1` (single isomer, unassigned) [Compound 130b]: the Kd in test [1] was 100 to 1000 nM; in test [2] (read-out: PARP1 HTRF), below 10 nM. The Selectivity result in test [2] was “+++ (+++ indicate a value of at least 100)”. Also, the IC50 in test [3] was below 10 nM.
As to `CNC(=O)c1ccc(N2CCC(N3CCCC(c4nc5ccccc5c(=O)[nH]4)C3)CC2)c(C)n1` (single isomer, unassigned) [Compound 131a], the Kd in test [1] was in the range of 1000 to 10000 nM; in test [2] (read-out: PARP1 HTRF) it was 100 to 1000 nM. For the same molecule, the Selectivity entry in test [2] is reported as “+ (+ indicates a value of 10 to less than 50)”. Moreover, the half-inhibitory concentration (IC50) in test [3] is 10 to 100 nM.
Regarding `CNC(=O)c1ccc(N2CCC(N3CCCC(c4nc5ccccc5c(=O)[nH]4)C3)CC2)c(C)n1` (single isomer, unassigned) [Compound 131b], the Kd in test [1] was above 10000 nM; in test [2] (read-out: PARP1 HTRF) it was below 10 nM. In test [2], the Selectivity entry is “+++ (+++ indicate a value of at least 100)”. In test [3], the 50% inhibitory concentration (IC50) is below 10 nM.
Regarding `CCc1ccc(C2CCN(C3CCN(c4ccc(C(=O)NC)nc4C)CC3)C2)[nH]c1=O` (single isomer, unassigned) [Compound 133a], the values for the Kd in test [1] and in test [2] (read-out: PARP1 HTRF) were 1000 to 10000 nM and below 10 nM, respectively. Besides, in test [2], the Selectivity entry is “+++ (+++ indicate a value of at least 100)”. The 50% inhibitory concentration (IC50) in test [3] is below 10 nM.
With `CCc1ccc(C2CCN(C3CCN(c4ccc(C(=O)NC)nc4C)CC3)C2)[nH]c1=O` (single isomer, unassigned) [Compound 133b], the Kd in test [1] was above 10000 nM; in test [2] (read-out: PARP1 HTRF), 10 to 100 nM. Moreover, the Selectivity entry in test [2] is “+++ (+++ indicate a value of at least 100)”. For the same molecule, the IC50 in test [3] fell in the range of 10 to 100 nM.
Turning to `CNC(=O)c1ccc(N2CCC(N3CCC(c4cc5cccc(F)c5c(=O)[nH]4)C3)CC2)cn1` (single isomer, unassigned) [Compound 136a, 5-{4-[3-(8-fluoro-1-oxo-2H-isoquinolin-3-yl)pyrrolidin-1-yl]piperidin-1-yl}-N-methylpyridine-2-carboxamide], the Kd is 100 to 1000 nM in test [1] and below 10 nM in test [2] (PARP1 HTRF). Besides, the Selectivity entry in test [2] is listed as “+++ (+++ indicate a value of at least 100)”. For the same molecule, the half-maximal inhibitory concentration (IC50) in test [3] was below 10 nM.
Turning to `CNC(=O)c1ccc(N2CCC(N3CCC(c4cc5c(Cl)cccc5c(=O)[nH]4)C3)CC2)cn1` (single isomer, unassigned) [Compound 137a], the Kd is 100 to 1000 nM in test [1] and below 10 nM in test [2] (read-out: PARP1 HTRF). For the same molecule, the Selectivity result in test [2] is reported as “+++ (+++ indicate a value of at least 100)”. Moreover, in test [3], the IC50 is below 10 nM.
As for `CNC(=O)c1ccc(N2CCC(N3CCC(c4nc5ccccc5c(=O)[nH]4)C3)CC2)c(C(F)(F)F)n1` (single isomer, unassigned) [Compound 139a], the results for the Kd in test [1] and in test [2] (read-out: PARP1 HTRF) were 1000 to 10000 nM and below 10 nM, respectively. Also, the Selectivity result in test [2] is reported as “+++ (+++ indicate a value of at least 100)”. In test [3], the IC50 was below 10 nM.

Values taken from patent US20250152585A1, “PHARMACEUTICAL COMPOUND” (Duke Street Bio Limited, priority 2022, published 2025).
